# According to patent US9708368B2, “Linear peptide antibiotics” (priority 2012, dated 2017):
# pIC50: −log10 of the molar value. Numbered stars: 1 amine (or outer) side, 2 acyl side, 3 side chain; on linkers, the order of the positions; unused ones are H or OH. Square brackets hold non-standard residues; d marks the D form. Peptide text beside a SMILES is read from it. * marks the point of attachment. ξ: configuration not given here. boroAla((+)-pinanediol) = C[C@H](N*)B1O[C@@H]2C[C@@H]3C[C@@H](C3(C)C)[C@]2(C)O1; X7 = CC1(C)[C@@H]2C[C@H]3OB([C@@H]4CCCN4*)O[C@@]3(C)[C@H]1C2; Biphenylcarbonyl(4'-Bu) = CCCCc1ccc(-c2ccc(C(=O)*)cc2)cc1; X1 = C[C@H](N*)B1OC2C[C@@H]3C[C@@H](C3(C)C)[C@]2(C)O1; ξ3Amino2oxobutanoyl = CC(N[*:1])C(=O)C(=O)[*:2]; Benzoyl(2,3-diOH) = O=C(c1cccc(O)c1O)*; Lauroyl = CCCCCCCCCCCC(=O)*; Dab = NCC[C@H](N)C(=O)O; Abu = CC[C@H](N)C(=O)O; ξOrn = NCCCC(N)C(=O)O; βAla = NCCC(=O)O
# Experiments:
# [1] = system: Escherichia coli strain MC4100 IMP-4213, which harbors an LptD mutation; conditions: Method B; E. coli MC4100 IMP-4213 (LptD mutation); 35° C., 22 hours
# In short: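 Two-fold serial dilutions of compound inoculated at final OD600 0.0005, incubated static at 35 °C for 22 h, and growth read visually.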
# [2] = system: methicillin resistant Staphylococcus aureus (MRSA) strain USA300 (NRS384); conditions: Method B, 35° C., 22 hours
# [3] = target: S. aureus SPase (Staphylococcus aureus, UniProt P0A070); test: biochemical
# Procedure: Full length His-tagged S. aureus SPase protein was expressed similarly from E. coli BL21(DE3) containing the plasmid pCDF1-SaSpsB and purified similarly to the E. coli protein with the following exceptions. […] Protein purity was judged to exceed 95% by visual inspection of SDS-PAGE followed by Comassie staining. All protein concentrations were determined by BCA assay.
# (§1) Reactions were initiated by the addition of substrate to a final concentration of 20 μM. Reaction progress was monitored by measuring the increase in fluorescence signal (excitation at 314 nm, emission at 416 nm) using a SpectraMax M2 fluorescence microplate reader. […] Three-folder serial dilutions of test compounds, starting at 10 μM, were prepared in enzyme mix solution and incubated at room temperature for 10 minutes. Following this incubation, fluorogenic substrate was added to a final concentration of 20 μM and the increase in fluorescence, corresponding to substrate cleavage, was monitored continuously at room temperature for 1 hour. Initial reaction rates were calculated based on the rate of increase in fluorescence during the reaction. Reaction rates were plotted as a function of compound concentration, and IC50 values are determined nonlinear regression analysis (SoftMaxPro 5.4, Molecular Devices™) of the sigmoidal dose-response curve.
# [4] = target: E. coli SPase (Escherichia coli, UniProt P00803); test: Biochemical SPase activity assay (fluorogenic peptide substrate), E. coli enzyme
# E. coli SPase, sequence (P00803 whole entry): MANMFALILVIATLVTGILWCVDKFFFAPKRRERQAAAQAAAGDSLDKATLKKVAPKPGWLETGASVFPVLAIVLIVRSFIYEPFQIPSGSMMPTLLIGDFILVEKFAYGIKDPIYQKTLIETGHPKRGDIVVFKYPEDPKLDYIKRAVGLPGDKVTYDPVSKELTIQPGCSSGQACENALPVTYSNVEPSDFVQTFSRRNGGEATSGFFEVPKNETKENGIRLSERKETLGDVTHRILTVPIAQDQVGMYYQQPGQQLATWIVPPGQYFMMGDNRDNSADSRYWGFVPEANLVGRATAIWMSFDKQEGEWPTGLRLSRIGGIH
# Procedure: as §1
# S. aureus SPase, sequence (P0A070 whole entry): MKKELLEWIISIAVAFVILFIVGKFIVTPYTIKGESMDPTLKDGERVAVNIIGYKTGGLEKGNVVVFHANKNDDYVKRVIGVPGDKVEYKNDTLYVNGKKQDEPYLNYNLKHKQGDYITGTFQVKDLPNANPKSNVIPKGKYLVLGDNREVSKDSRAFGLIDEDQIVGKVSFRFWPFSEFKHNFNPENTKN
SMILES,MIC (μg/mL) E. coli [1] [µg/mL],MIC (μg/mL) S. aureus [2] [µg/mL],pIC50 [3],pIC50 [4]
"CCCCc1ccc(-c2ccc(C(=O)N[C@@H](CCN)C(=O)N[C@@H](CCN)C(=O)N[C@@H](C)C(=O)N[C@@H](CCCCNC(=O)c3cccc(O)c3O)C(=O)N[C@@H](C)B3OC4C[C@@H]5C[C@@H](C5(C)C)[C@]4(C)O3)cc2)cc1 (stereo partly drawn) [Compound 190] ({Biphenylcarbonyl(4'-Bu)}-[Dab][Dab]AK(Benzoyl(2,3-diOH))-X1)",>64,64,4.19,5.89
CCCCc1ccc(-c2ccc(C(=O)N[C@@H](CCCCN)C(=O)N[C@H](C(=O)N[C@@H](C)C(=O)N[C@@H](CCCCN)C(=O)N[C@@H](C)B3OC4C[C@@H]5C[C@@H](C5(C)C)[C@]4(C)O3)[C@@H](C)O)cc2)cc1 (stereo partly drawn) [Compound 132] ({Biphenylcarbonyl(4'-Bu)}-KTAK-X1),1,0.21,7.11,7.62
CCCCCCCCCCCC(=O)NCCC(=O)N[C@@H](CCCCN)C(=O)N[C@H](C(=O)N[C@@H](C)C(=O)N[C@@H](CC(N)=O)C(=O)N[C@@H](C)B1OC2C[C@@H]3C[C@@H](C3(C)C)[C@]2(C)O1)[C@@H](C)O (stereo partly drawn) [Compound 202] ({Lauroyl-βAla}-KTAN-X1),23,1.1,8.46,8.15
CCCCc1ccc(-c2ccc(C(=O)NCCC(=O)N[C@@H](CCCCN)C(=O)N[C@H](C(=O)N[C@@H](CC)C(=O)N[C@@H](CC(N)=O)C(=O)N[C@@H](C)B3OC4C[C@@H]5C[C@@H](C5(C)C)[C@]4(C)O3)[C@@H](C)O)cc2)cc1 (stereo partly drawn) [Compound 206] ({Biphenylcarbonyl(4'-Bu)-βAla}-KT[Abu]N-X1),2,0.5,8.28,8.20
CCCCc1ccc(-c2ccc(C(=O)NCCC(=O)N[C@@H](CCCCN)C(=O)NC(CCCN)C(=O)N[C@@H](C)C(=O)N[C@@H](CC(C)C)C(=O)N[C@@H](C)B3OC4C[C@@H]5C[C@@H](C5(C)C)[C@]4(C)O3)cc2)cc1 (stereo partly drawn) [Compound 217] ({Biphenylcarbonyl(4'-Bu)-βAla}-K[ξOrn]AL-X1),1.6,0.35,7.85,7.82
CCCCc1ccc(-c2ccc(C(=O)NCCC(=O)N[C@@H](CCCCN)C(=O)N[C@H](C(=O)N[C@@H](C)C(=O)N[C@@H](CC(N)=O)C(=O)NC(C)C(=O)C(=O)NC)[C@@H](C)O)cc2)cc1 (stereo partly drawn) [Compound 252] ({Biphenylcarbonyl(4'-Bu)-βAla}-KTAN[ξ3Amino2oxobutanoyl]-NHMe),>64,5,8.06,5.52
CCCCc1ccc(-c2ccc(C(=O)NCCC(=O)N[C@@H](CCCCN)C(=O)N[C@H](C(=O)N[C@@H](C)C(=O)N[C@@H](CC(N)=O)C(=O)N3CCC[C@H]3B3O[C@@H]4C[C@@H]5C[C@@H](C5(C)C)[C@]4(C)O3)[C@@H](C)O)cc2)cc1 [Compound 200] ({Biphenylcarbonyl(4'-Bu)-βAla}-KTAN-X7),64,>64,5.92,5.28
CCCCc1ccc(Nc2ccc(C(=O)N[C@@H](CCN)C(=O)N[C@H](C(=O)N[C@@H](C)C(=O)N[C@@H](CCCCN)C(=O)N[C@@H](C)B3OC4C[C@@H]5C[C@@H](C5(C)C)[C@]4(C)O3)[C@@H](C)O)cc2)cc1 (stereo partly drawn) [Compound 249],1,0.35,6.80,7.77
CCCCc1ccc(-c2ccc(C(=O)N[C@@H](CCCCN)C(=O)N[C@H](C(=O)N[C@@H](C)C(=O)N[C@@H](CCN)C(=O)N[C@@H](C)B3O[C@@H]4C[C@@H]5C[C@@H](C5(C)C)[C@]4(C)O3)[C@@H](C)O)cc2)cc1 [Compound 140] ({Biphenylcarbonyl(4'-Bu)}-KTA[Dab]-{boroAla((+)-pinanediol)}),8,1,7.28,7.30
